Results: patent US20240391862A1, “(1,4,5-TRISUBSTITUTED-1H-PYRAZOL-3-YL)OXY-2-ALKOXY ALKYL ACIDS AND THEIR DERIVATIVES, THEIR SALTS AND THEIR USE AS HERBICIDAL AGENTS” (Bayer AKtiengesellschaft, priority 2021, published 2024)

Columns and labels:
Experiment in all cases: Post-emergence herbicidal effect, greenhouse pot test
[1] = test system: VERPE; format: in vivo, Veronica persica
Summary of the method: (§1)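 Sandy loam pots, greenhouse. One-leaf stage (2–3 wk after sowing) foliar spray; WP/EC in water + 0.5% additive, 600 l/ha; 20–320 g/ha. Visual score ~3 wk, 0–100% vs untreated.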

[2] = test system: POLCO; format: in vivo, Fallopia convolvulus
Summary of the method: as §1

[3] = test system: SETVI; format: in vivo, Setaria viridis; settings: for pest or weed control at 20 g/ha: Setaria viridis, 504 h, read-out: Post-emergence effect against SETVI in %
Summary of the method: as §1

[4] = test system: DIGSA; format: in vivo, Digitaria sanguinalis; settings: visual rating about 3 weeks after treatment; for Post-emergence effect against DIGSA: 320 g/ha; for pest or weed control at 80 g/ha: Digitaria sanguinalis, 504 h, read-out: Post-emergence effect against DIGSA
Summary of the method: as §1

[5] = test system: KCHSC; format: in vivo; settings: for pest or weed control at 20 g/ha: 504 h, read-out: Post-emergence effect against KCHSC in %
Summary of the method: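 Visual rating of activity against untreated plants (100% = plants died, 0% = no effect), done about 3 weeks after treatment. Compounds applied at 20–320 g/ha as aqueous spray (600 l/ha, 0.5% additive) from WP or EC formulations onto one-leaf-stage plants grown in sandy loam under greenhouse conditions.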

[6] = test system: LOLRI; format: in vivo, Lolium rigidum
Summary of the method: as §1

[7] = test system: ABUTH; format: in vivo, Abutilon theophrasti; settings: visual rating about 3 weeks after treatment
Summary of the method: as §1

[8] = test system: PHBPU; format: in vivo, Ipomoea purpurea
Summary of the method: as §1

[9] = test system: MATIN; format: in vivo, Tripleurospermum inodorum
Summary of the method: as §1

[10] = test system: AVEFA; format: in vivo, Avena fatua; settings: visual rating about 3 weeks after treatment
Summary of the method: as §1

[11] = test system: ALOMY; format: in vivo, Alopecurus myosuroides; settings: visual rating about 3 weeks after treatment
Summary of the method: as §1

[12] = test system: AMARE; format: in vivo, Amaranthus retroflexus; settings: visual rating about 3 weeks after treatment
Summary of the method: as §1

[13] = test system: ECHCG; format: in vivo, Echinochloa crus-galli; settings: for Post-emergence effect against ECHCG: 20 g/ha, visual rating about 3 weeks after treatment
Summary of the method: as §1

[14] = test system: VIOTR; format: in vivo, Viola tricolor
Summary of the method: as §1

Row | SMILES | Post-emergence effect against VERPE in % ([1]; 80 g/ha) [%] | Post-emergence effect against VERPE in % ([1]; 320 g/ha) [%] | Post-emergence effect against POLCO in % ([2]; 80 g/ha) [%] | Post-emergence effect against POLCO in % ([2]; 320 g/ha) [%] | Post-emergence effect against SETVI in % ([3]; 80 g/ha) [%] | Post-emergence effect against SETVI in % ([3]; 320 g/ha) [%] | pest or weed control at 20 g/ha [3] [%] | Post-emergence effect against DIGSA [4] [%] | pest or weed control at 80 g/ha [4] [%] | Post-emergence effect against KCHSC in % ([5]; 80 g/ha) [%] | Post-emergence effect against KCHSC in % ([5]; 320 g/ha) [%] | pest or weed control at 20 g/ha [5] [%] | Post-emergence effect against LOLRI in % ([6]; 320 g/ha) [%] | Post-emergence effect against ABUTH ([7]; 80 g/ha) [%] | Post-emergence effect against ABUTH ([7]; 320 g/ha) [%] | Post-emergence effect against PHBPU in % ([8]; 80 g/ha) [%] | Post-emergence effect against PHBPU in % ([8]; 320 g/ha) [%] | Post-emergence effect against MATIN in % ([9]; 80 g/ha) [%] | Post-emergence effect against MATIN in % ([9]; 320 g/ha) [%] | Post-emergence effect against AVEFA ([10]; 80 g/ha) [%] | further results
1 | COC(Oc1nn(-c2ncccc2F)c(-c2cncc(F)c2)c1C1CC1)C(=O)O (stereo not shown) [Example I-84] | 90 | 90 | 90 | 90 | 90 | 90 | 80 | 90 | 80 | 90 | 90 | 90 | 90 | 80 | 80 | 90 | 90 | 80 | 80 | 90 | pest or weed control at 80 g/ha ([6]; Lolium rigidum, 504 h, 80 g/ha, read-out: Post-emergence effect against LOLRI in %): 90%; pest or weed control at 20 g/ha ([8]; Ipomoea purpurea, 504 h, 20 g/ha, read-out: Post-emergence effect against PHBPU in %): 80%; Post-emergence effect against AVEFA ([10]; 320 g/ha): 90%; Post-emergence effect against ALOMY ([11]; 320 g/ha): 90%; Post-emergence effect against AMARE ([12]; 320 g/ha): 80%; pest or weed control at 80 g/ha ([12]; Amaranthus retroflexus, 504 h, 80 g/ha, read-out: Post-emergence effect against AMARE): 80%; Post-emergence effect against ECHCG [13]: 90%; Post-emergence effect against ECHCG in % ([13]; 80 g/ha): 90%; Post-emergence effect against ECHCG in % ([13]; 320 g/ha): 90%; Post-emergence effect against VIOTR in % ([14]; 80 g/ha): 90%; Post-emergence effect against VIOTR in % ([14]; 320 g/ha): 90%
2 | COC(=O)C(OC)Oc1nn(-c2ncccc2F)c(-c2cncc(F)c2)c1C1CC1 (stereo not shown) [Example I-87] | 90 | 90 | 90 | 90 | 90 | 90 | 90 | 90 | 80 | 90 | 90 | 90 | 90 | 90 | 90 | 90 | 90 | 80 | 80 | 90 | pest or weed control at 20 g/ha ([1]; Veronica persica, 504 h, 20 g/ha, read-out: Post-emergence effect against VERPE in %): 80%; Post-emergence effect against POLCO in % ([2]; 20 g/ha): 80%; Post-emergence effect against LOLRI in % ([6]; 80 g/ha): 90%; pest or weed control at 20 g/ha ([7]; Abutilon theophrasti, 504 h, 20 g/ha, read-out: Post-emergence effect against ABUTH): 90%; Post-emergence effect against PHBPU in % ([8]; 20 g/ha): 90%; Post-emergence effect against AVEFA ([10]; 320 g/ha): 90%; Post-emergence effect against ALOMY ([11]; 80 g/ha): 90%; Post-emergence effect against ALOMY ([11]; 320 g/ha): 90%; Post-emergence effect against AMARE ([12]; 80 g/ha): 80%; Post-emergence effect against AMARE ([12]; 320 g/ha): 90%; Post-emergence effect against ECHCG [13]: 90%; Post-emergence effect against ECHCG in % ([13]; 80 g/ha): 90%; Post-emergence effect against ECHCG in % ([13]; 320 g/ha): 90%; Post-emergence effect against VIOTR in % ([14]; 20 g/ha): 90%; Post-emergence effect against VIOTR in % ([14]; 80 g/ha): 90%; Post-emergence effect against VIOTR in % ([14]; 320 g/ha): 90%
